Holding throughout (format): cell-based
The nature of series [1]: Cytotoxicity in PHH natural infection assay (Cell Counting Kit-8). To be noted: HBV-infected primary human hepatocytes, CCK8. As for the experimental part:
(§1) Detailed procedures regarding primary human hepatocyte (PHH) HBV natural infection assay are described as below. One tube of frozen PHH (10 million cells) is thawed in 37° C. water bath and then transferred to 20 mL of PHH thawing medium (Sigma, InVitroGRO HT Medium, Cat. S03319) with gently mixing. The cells were then centrifuged at […] for 5 min, the supernatant was discarded and the tube was refilled with 25 mL of PHH plating medium (Sigma, InVitroGRO CP Medium, Cat. S03317). The tube was shaken very gently to re-suspend all cells, and then 50 μL of cells were transferred to each well 384-well collagen I coated plate with appropriate liquid handling equipment, e.g. Integra VIAFLO384 or Agilent Bravo. The cells were then cultured for 24 hours in a cell incubator. For HBV infection, after PHH attachment on the culture plate, the plating medium was removed and replenished with PHH culture medium containing HBV virus. The PHH culture medium was prepared with Dulbecco's Modified Eagle Medium (DMEM)/F12 (1:1 in volume ratio) containing 10% fetal bovine serum (Gibco, Cat. 10099141), 5 ng/mL human epidermal growth factor (Gibco, Cat. PHG0311L), 20 ng/mL dexamethasone (Sigma, Cat. D4902-100 mg), 250 ng/mL human recombinant insulin (Gibco, Cat. 41400045) and 100 U/mL penicillin. HBV virus at 200 genome equivalent (GE) per cell with 4% PEG8000 (Sigma, Cat. P1458) containing culture medium were added to the PHH culture medium for infection. The cells were then cultured for 24 hours in cell incubator. Then the cell culture supernatant was removed. The HBV-infected PHH were cultured with sandwich culture method with MEI culture medium containing 1% DMSO and 0.25 mg/mL matrix gel for 72 hours. The supernatant was then refreshed with PHH culture medium containing different concentrations of testing compounds for two times with 72-hour interval. At the end of treatment, the supernatant was collected for viral markers measurements, including HBsAg, HBeAg, HBV DNA and cytotoxicity. HBsAg and HBeAg were detected using alphalisa method using their specific antibodies. For HBV DNA detection, HBV DNA Quantitative Fluorescence Diagnostic Kit (Sansure Biotech Inc.) was used following the manufacture's protocol. Cytotoxicity was determined using Cell Counting Kit-8 (CCK8, Dojindo Molecular Technologies, Inc.).

In another series the test system is HBeAg. The series is described as follows: PHH HBV natural infection assay, HBeAg (alphalisa). The settings on record: Hepatitis B virus, Hepatocyte, read-out: HBeAg IC50. As for the experimental part:
as §1
(§2) The compounds of the present invention were tested for their capacity to inhibit HBsAg and HBeAg as described herein.
In general terms: Bead proximity is the source of the signal in Alpha formats.

The test system of another series is HBsAg. The series is described as follows: PHH HBV natural infection assay, HBsAg (alphalisa). To be noted: Hepatitis B virus, Hepatocyte, read-out: HBsAg IC50. As for the experimental part: as §1, §2

Among the data in patent US20230416238A1, “N-[(1,3-BENZOXAZOL-2-YL)-HETEROCYCLE]AMIDE DERIVATIVES FOR THE TREATMENT AND PROPHYLAXIS OF HEPATITIS B VIRUS INFECTION” (Hoffmann-La Roche Inc., priority 2020, published 2023) are CC50 and IC50 values, retold here.

Bounds are passed on as bounds.

As for `O=C(NC1CC2(C1)CN(c1nc3cc(Cl)ccc3o1)C2)c1ccc(S(=O)(=O)C2CC2)o1` [Example 44, N-[2-(5-chloro-1,3-benzoxazol-2-yl)-2-azaspiro[3.3]heptan-6-yl]-5-cyclopropylsulfonyl-furan-2-carboxamide], in series [1], the CC50 at 144 h is more than 100000 nM. The IC50 in the series on HBeAg was 1280 nM; with HBsAg, 2270 nM.

In the case of `Cc1cc(C(=O)NC2CC3(C2)CN(c2nc4cc(Cl)ccc4o2)C3)ccn1` [Example 45, N-[2-(5-chloro-1,3-benzoxazol-2-yl)-2-azaspiro[3.3]heptan-6-yl]-2-methyl-pyridine-4-carboxamide], the CC50 at 144 h in series [1] was determined as 80100 nM. The results for the IC50 with HBeAg and in the series on HBsAg were 1300 nM and 2730 nM, respectively.

As to `COc1ccc(C(=O)NC2CC3(C2)CN(c2nc4cc(Cl)ccc4o2)C3)cn1` [Example 46, N-[2-(5-chloro-1,3-benzoxazol-2-yl)-2-azaspiro[3.3]heptan-6-yl]-6-methoxy-pyridine-3-carboxamide], the CC50 at 144 h in series [1] was more than 100000 nM. Also, the IC50 with HBeAg stood at 2860 nM; in the series on HBsAg, 4740 nM.

Molecule `C[S@](=N)(=O)c1ccc(C(=O)NC2CC3(C2)CN(c2nc4cc(Cl)ccc4o2)C3)o1` [Example 47, N-[2-(5-chloro-1,3-benzoxazol-2-yl)-2-azaspiro[3.3]heptan-6-yl]-5-[(S)-methylsulfonimidoyl]furan-2-carboxamide] had a CC50 at 144 h in series [1] of more than 100000 nM. Moreover, the IC50 with HBeAg is 2310 nM; in the series on HBsAg, 4240 nM.

Molecule `CS(=O)(=O)c1ccc(C(=O)NC2CC3(C2)CN(c2nc4cc(Cl)cnc4o2)C3)o1` [Example 48, N-[2-(6-chlorooxazolo[5,4-b]pyridin-2-yl)-2-azaspiro[3.3]heptan-6-yl]-5-methylsulfonyl-furan-2-carboxamide] came in with a CC50 at 144 h in series [1] of more than 100000 nM. Moreover, the IC50 in the series on HBeAg stood at 2950 nM; with HBsAg, 3800 nM.

In series [1], `CCOc1cc(C(=O)NC2CC3(C2)CN(c2nc4cc(Cl)ccc4o2)C3)ccn1` [Example 49, N-[2-(5-chloro-1,3-benzoxazol-2-yl)-2-azaspiro[3.3]heptan-6-yl]-2-ethoxy-pyridine-4-carboxamide] had a CC50 at 144 h of more than 100000 nM. Also, the values for the IC50 in the series with HBeAg and in the series on HBsAg were 1700 nM and 3100 nM, respectively.

Take `CC(C)CS(=N)(=O)c1ccc(C(=O)NC2CC3(C2)CN(c2nc4cc(Cl)ccc4o2)C3)o1` (stereo not drawn) [Example 50, N-[2-(5-chloro-1,3-benzoxazol-2-yl)-2-azaspiro[3.3]heptan-6-yl]-5-(isobutylsulfonimidoyl)furan-2-carboxamide]: the CC50 at 144 h in series [1] was 95400 nM. For the same molecule, the figures for the IC50 with HBeAg and in the series with HBsAg were 1490 nM and 1660 nM, respectively.

`CS(=O)(=O)Cc1ccc(C(=O)NC2CC3(C2)CN(c2nc4cc(Cl)ccc4o2)C3)o1` [Example 51, N-[2-(5-chloro-1,3-benzoxazol-2-yl)-2-azaspiro[3.3]heptan-6-yl]-5-(methylsulfonylmethyl)furan-2-carboxamide] showed a CC50 at 144 h in series [1] of more than 100000 nM. For the same molecule, the IC50 came to 1950 nM in the series on HBeAg and 2220 nM in the series with HBsAg.

In series [1], `CS(=O)(=O)c1cc(C(=O)NC2CC3(C2)CN(c2nc4cc(Cl)ccc4o2)C3)ccn1` [Example 52, N-[2-(5-chloro-1,3-benzoxazol-2-yl)-2-azaspiro[3.3]heptan-6-yl]-2-methylsulfonyl-pyridine-4-carboxamide] returned a CC50 at 144 h of more than 100000 nM. In addition, the IC50 worked out at 1260 nM with HBeAg and 1500 nM in the series with HBsAg.

For `CCS(=O)(=O)c1cc(C(=O)NC2CC3(C2)CN(c2nc4cc(Cl)ccc4o2)C3)ccn1` [Example 53, N-[2-(5-chloro-1,3-benzoxazol-2-yl)-2-azaspiro[3.3]heptan-6-yl]-2-ethylsulfonyl-pyridine-4-carboxamide], the CC50 at 144 h in series [1] was 93200 nM. The IC50 amounted to 785 nM with HBeAg and 1410 nM with HBsAg.

Take `CC(C)CS(=O)(=O)c1ccc(C(=O)NC2CC3(C2)CN(c2nc4cc(Cl)ccc4o2)C3)o1` [Example 54, N-[2-(5-chloro-1,3-benzoxazol-2-yl)-2-azaspiro[3.3]heptan-6-yl]-5-isobutylsulfonyl-furan-2-carboxamide]: the CC50 at 144 h in series [1] was 84500 nM. For the same molecule, the values for the IC50 in the series with HBeAg and with HBsAg were 828 nM and 1270 nM, respectively.

With `O=C(NC1CC2(C1)CN(c1nc3cc(Cl)ccc3o1)C2)c1ccnc(C(F)(F)F)c1` [Example 55, N-[2-(5-chloro-1,3-benzoxazol-2-yl)-2-azaspiro[3.3]heptan-6-yl]-2-(trifluoromethyl)pyridine-4-carboxamide], the CC50 at 144 h in series [1] was 71100 nM. Also, the IC50 in the series on HBeAg turned out to be 966 nM; in the series with HBsAg it was 1220 nM.

The molecule `CS(=O)(=O)c1ccc(C(=O)NC2CC3(C2)CN(c2nc4cc(Cl)ccc4o2)C3)o1` [Example 56, N-[2-(5-chloro-1,3-benzoxazol-2-yl)-2-azaspiro[3.3]heptan-6-yl]-5-methylsulfonyl-furan-2-carboxamide] registered a CC50 at 144 h in series [1] of more than 100000 nM. Besides, the IC50 in the series with HBeAg stood at 996 nM; with HBsAg, 1220 nM.

Consider `N=S(=O)(CC1CC1)c1ccc(C(=O)NC2CC3(C2)CN(c2nc4cc(Cl)ccc4o2)C3)o1` (stereo not drawn) [Example 57, N-[2-(5-chloro-1,3-benzoxazol-2-yl)-2-azaspiro[3.3]heptan-6-yl]-5-(cyclopropylmethylsulfonimidoyl)furan-2-carboxamide], for which the CC50 at 144 h in series [1] is more than 100000 nM. Moreover, the values for the IC50 in the series on HBeAg and in the series with HBsAg were 953 nM and 996 nM, respectively.

As for `CCS(=O)(=O)c1ccc(C(=O)NC2CC3(C2)CN(c2nc4cc(Cl)ccc4o2)C3)o1` [Example 58, N-[2-(5-chloro-1,3-benzoxazol-2-yl)-2-azaspiro[3.3]heptan-6-yl]-5-ethylsulfonyl-furan-2-carboxamide], the CC50 at 144 h in series [1] is more than 100000 nM. For the same molecule, the figures for the IC50 with HBeAg and with HBsAg were 812 nM and 918 nM, respectively.

Regarding `O=C(NC1CC2(C1)CN(c1nc3cc(Cl)ccc3o1)C2)c1ccc(S(=O)(=O)NC2CC2)o1` [Example 59, N-[2-(5-chloro-1,3-benzoxazol-2-yl)-2-azaspiro[3.3]heptan-6-yl]-5-(cyclopropylsulfamoyl)furan-2-carboxamide], the CC50 at 144 h in series [1] was more than 10000 nM. The IC50 stood at 1460 nM in the series with HBeAg and 2840 nM in the series with HBsAg.

As to `O=C(NC1CC2(C1)CN(c1nc3cc(Cl)ccc3o1)C2)c1ccc(S(=O)(=O)NC2CC(F)(F)C2)o1` [Example 60, N-[2-(5-chloro-1,3-benzoxazol-2-yl)-2-azaspiro[3.3]heptan-6-yl]-5-[(3,3-difluorocyclobutyl)sulfamoyl]furan-2-carboxamide], the CC50 at 144 h in series [1] is more than 10000 nM. Moreover, the half-maximal inhibitory concentration (IC50) in the series with HBeAg turned out to be 2550 nM; in the series with HBsAg, 2520 nM.

In series [1], `O=C(NC1CC2(C1)CN(c1nc3cc(Cl)ccc3o1)C2)c1ccc([S+]([O-])CC2CC2)o1` (stereo not drawn) [Example 61, N-[2-(5-chloro-1,3-benzoxazol-2-yl)-2-azaspiro[3.3]heptan-6-yl]-5-(cyclopropylmethylsulfinyl)furan-2-carboxamide] showed a CC50 at 144 h of 96000 nM. In addition, the IC50 was 402 nM in the series on HBeAg and 189 nM with HBsAg.

As for `CC(C)C[S+]([O-])c1ccc(C(=O)NC2CC3(C2)CN(c2nc4cc(Cl)ccc4o2)C3)o1` (stereo not drawn) [Example 62, N-[2-(5-chloro-1,3-benzoxazol-2-yl)-2-azaspiro[3.3]heptan-6-yl]-5-isobutylsulfinyl-furan-2-carboxamide], in series [1], the CC50 at 144 h amounted to 77400 nM. In addition, the IC50 in the series with HBeAg is 393 nM; with HBsAg, 449 nM.

Turning to `C[S@@](=N)(=O)c1ccc(C(=O)NC2CC3(C2)CN(c2nc4cc(Cl)ccc4o2)C3)o1` [Example 63, N-[2-(5-chloro-1,3-benzoxazol-2-yl)-2-azaspiro[3.3]heptan-6-yl]-5-[(R)-methylsulfonimidoyl]furan-2-carboxamide], the CC50 at 144 h in series [1] was more than 100000 nM. In addition, the IC50 in the series on HBeAg stood at 1420 nM; in the series with HBsAg, 2470 nM.

In series [1], `C[S+]([O-])c1ccc(C(=O)NC2CC3(C2)CN(c2nc4cc(Cl)ccc4o2)C3)o1` (stereo not drawn) [Example 64, N-[2-(5-chloro-1,3-benzoxazol-2-yl)-2-azaspiro[3.3]heptan-6-yl]-5-methylsulfinyl-furan-2-carboxamide] registered a CC50 at 144 h of more than 100000 nM. Moreover, the figures for the IC50 in the series on HBeAg and in the series with HBsAg were 1540 nM and 2520 nM, respectively.

A word on the CC50: it is the concentration giving 50% cytotoxicity. A word on the IC50: it is the concentration that inhibits the measured activity by half.
